In article PMC9578043 (Journal of medicinal chemistry, 2021):

Tests used:
[1] = Plasma protein binding, rat; type: in vitro ADME
[2] = biological target: CYP2D6 (Homo sapiens, UniProt P10635); test: CYP inhibition 2D6; type: in vitro ADME
[3] = Liver microsomal stability, human; type: in vitro ADME
[4] = Liver microsomal stability, monkey; type: in vitro ADME, cynomolgus monkey; details: for half-life: cynomolgus monkey
[5] = biological target: CYP2C19 (Homo sapiens, UniProt P33261); test: CYP inhibition 2C19; type: in vitro ADME
Chain of CYP2C19 (P33261 whole entry): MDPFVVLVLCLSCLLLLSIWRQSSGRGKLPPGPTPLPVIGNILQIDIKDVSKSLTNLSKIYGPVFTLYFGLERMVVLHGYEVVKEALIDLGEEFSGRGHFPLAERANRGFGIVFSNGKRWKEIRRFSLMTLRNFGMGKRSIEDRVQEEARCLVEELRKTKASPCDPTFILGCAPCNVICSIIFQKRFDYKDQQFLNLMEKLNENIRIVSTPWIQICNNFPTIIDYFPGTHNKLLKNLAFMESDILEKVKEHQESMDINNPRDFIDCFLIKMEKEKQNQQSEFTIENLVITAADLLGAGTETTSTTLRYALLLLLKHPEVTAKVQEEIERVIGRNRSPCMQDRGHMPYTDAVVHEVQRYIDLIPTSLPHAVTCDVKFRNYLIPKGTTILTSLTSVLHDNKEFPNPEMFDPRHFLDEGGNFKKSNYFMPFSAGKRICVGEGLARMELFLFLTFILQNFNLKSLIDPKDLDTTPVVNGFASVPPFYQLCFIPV

[6] = Plasma protein binding, human; type: in vitro ADME
[7] = biological target: CYP3A4 (Homo sapiens, UniProt P08684); test: CYP inhibition 3A4; type: in vitro ADME
Chain of CYP3A4 (P08684 whole entry): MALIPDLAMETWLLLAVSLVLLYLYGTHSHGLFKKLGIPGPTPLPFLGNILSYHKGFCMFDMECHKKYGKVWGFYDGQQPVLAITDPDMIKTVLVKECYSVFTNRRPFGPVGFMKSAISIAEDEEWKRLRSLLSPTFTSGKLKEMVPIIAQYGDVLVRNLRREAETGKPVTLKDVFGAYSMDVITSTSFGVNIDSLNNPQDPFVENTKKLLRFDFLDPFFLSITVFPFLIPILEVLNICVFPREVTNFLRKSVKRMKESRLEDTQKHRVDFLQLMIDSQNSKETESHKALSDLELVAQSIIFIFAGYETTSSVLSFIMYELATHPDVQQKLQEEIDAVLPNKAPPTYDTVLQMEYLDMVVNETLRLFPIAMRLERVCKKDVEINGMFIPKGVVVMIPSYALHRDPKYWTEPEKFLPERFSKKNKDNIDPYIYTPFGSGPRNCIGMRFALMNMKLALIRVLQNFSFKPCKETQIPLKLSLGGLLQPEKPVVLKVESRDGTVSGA

[8] = biological target: CYP2C9 (Homo sapiens, UniProt P11712); test: CYP inhibition 2C9; type: in vitro ADME
Chain of CYP2C9 (P11712 whole entry): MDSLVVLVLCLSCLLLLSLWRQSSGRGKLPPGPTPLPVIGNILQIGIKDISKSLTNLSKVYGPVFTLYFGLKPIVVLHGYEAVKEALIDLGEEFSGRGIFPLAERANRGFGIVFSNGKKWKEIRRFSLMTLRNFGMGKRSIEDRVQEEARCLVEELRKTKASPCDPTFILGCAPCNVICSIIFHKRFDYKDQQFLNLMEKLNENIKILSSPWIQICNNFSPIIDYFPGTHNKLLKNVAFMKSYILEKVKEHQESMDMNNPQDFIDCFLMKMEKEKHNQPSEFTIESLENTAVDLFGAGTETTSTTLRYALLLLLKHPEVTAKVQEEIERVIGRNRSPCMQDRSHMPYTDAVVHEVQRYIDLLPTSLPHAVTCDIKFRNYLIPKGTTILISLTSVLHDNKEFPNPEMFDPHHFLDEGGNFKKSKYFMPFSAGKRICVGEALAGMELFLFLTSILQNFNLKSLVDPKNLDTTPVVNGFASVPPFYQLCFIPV

[9] = Liver microsomal stability, rat; type: in vitro ADME
[10] = Kinetic solubility in PBS; type: physicochemical; details: pH 7.4
[11] = Liver microsomal stability, mouse; type: in vitro ADME
[12] = tested on: ATTR-CM; details: 28 day phase II, cited from earlier work
[13] = tested on: serum RBP4 levels; set-up: species or system mice; details: mouse, in vivo, po
[14] = tested on: hereditary ATTR; details: patients with hereditary ATTR; cited from earlier work
[15] = tested on: TTR; details: ITC; cited from earlier work
[16] = tested on: ATTR-CM; details: 441 ATTR-CM patients, compared to placebo; cited from earlier work

Chain of CYP2D6 (P10635 whole entry): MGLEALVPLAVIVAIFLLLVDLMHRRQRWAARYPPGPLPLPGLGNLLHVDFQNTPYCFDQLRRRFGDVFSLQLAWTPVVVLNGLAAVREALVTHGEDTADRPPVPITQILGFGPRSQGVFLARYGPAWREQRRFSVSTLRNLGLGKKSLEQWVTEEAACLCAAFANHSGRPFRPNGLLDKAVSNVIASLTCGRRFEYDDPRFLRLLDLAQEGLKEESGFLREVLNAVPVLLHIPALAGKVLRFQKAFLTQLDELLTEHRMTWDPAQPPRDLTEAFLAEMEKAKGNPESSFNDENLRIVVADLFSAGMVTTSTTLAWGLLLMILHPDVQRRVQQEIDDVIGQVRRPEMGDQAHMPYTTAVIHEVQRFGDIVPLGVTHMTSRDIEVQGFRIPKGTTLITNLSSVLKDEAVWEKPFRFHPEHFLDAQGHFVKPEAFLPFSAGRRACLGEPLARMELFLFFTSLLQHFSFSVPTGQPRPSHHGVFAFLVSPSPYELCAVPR

| SMILES | half-life ([3]; liver microsomes) | half-life ([4]; liver microsomes) | half-life ([9]; liver microsomes) | half-life ([11]; liver microsomes) | half-life ([3]; microsomes) | half-life ([4]; microsomes) | half-life ([9]; microsomes) | half-life ([11]; microsomes) | further results |
| --- | --- | --- | --- | --- | --- | --- | --- | --- | --- |
| COc1ccc(C(=O)O)cc1N1CCN(c2c(C)n[nH]c2C)CC1 [20b, 3-(4-(3,5-dimethyl-1H-pyrazol-4-yl)piperazin-1-yl)-4-methoxybenzoic acid] | > 1 h | > 1 h | > 1 h | > 1 h |  |  |  |  | fraction unbound [1]: 0.22; inhibition at 10 µM [2]: 8%; microsomal CLint ([3]; liver microsomes): < 23.1 µL/min/mg; remaining at 0.5 h ([3]; liver microsomes): 108%; microsomal CLint ([4]; monkey, liver microsomes): < 23.1 µL/min/mg; remaining at 0.5 h ([4]; monkey, liver microsomes): 102%; inhibition at 10 µM [5]: 4.2%; fraction unbound [6]: 0.25; inhibition at 10 µM [7]: 19.6%; inhibition at 10 µM [8]: 1.4%; microsomal CLint ([9]; liver microsomes): < 23.1 µL/min/mg; remaining at 0.5 h ([9]; liver microsomes): 101%; solubility [10]: ≥ 200 µM; microsomal CLint ([11]; liver microsomes): < 23.1 µL/min/mg; remaining at 0.5 h ([11]; liver microsomes): 102% |
| Cc1ccc(C(=O)O)cc1N1CCN(c2c(C)n[nH]c2C)CC1 [20c, 3-(4-(3,5-dimethyl-1H-pyrazol-4-yl)piperazin-1-yl)-4-methylbenzoic acid] |  |  |  |  | > 1 h | > 1 h | > 1 h | > 1 h |  |
| Cc1n[nH]c(C)c1N1CCN(c2cc(C(=O)O)ccc2C(F)(F)F)CC1 [20d, 3-(4-(3,5-dimethyl-1H-pyrazol-4-yl)piperazin-1-yl)-4-(trifluoromethyl)benzoic acid] |  |  |  |  | > 1 h | > 1 h | > 1 h | > 1 h |  |
| Cc1n[nH]c(C)c1N1CCN(c2cc(C(=O)O)ccc2Cl)CC1 [20e, 4-chloro-3-(4-(3,5-dimethyl-1H-pyrazol-4-yl)piperazin-1-yl)benzoic acid] | > 1 h | > 1 h | > 1 h | > 1 h |  |  |  |  |  |
| Cc1cc(F)c(N2CCN(c3c(C)n[nH]c3C)CC2)cc1C(=O)O [20i, 5-(4-(3,5-dimethyl-1H-pyrazol-4-yl)piperazin-1-yl)-4-fluoro-2-methylbenzoic acid] | > 1 h | > 1 h | > 1 h | > 1 h |  |  |  |  |  |
| Cc1n[nH]c(C)c1CCCOc1cc(C(=O)O)ccc1F [AG10, acoramidis] |  |  |  |  |  |  |  |  | stabilization of TTR ([12]; ATTR-CM patients with symptomatic chronic heart failure): near-complete stabilization; tolerability [12]: well tolerated |
| Cc1n[nH]c(C)c1N1CCN(c2cc(C(=O)O)ccc2F)CC1 [compound 14, 3-(4-(3,5-dimethyl-1H-pyrazol-4-yl)piperazin-1-yl)-4-fluorobenzoic acid] |  |  |  |  | > 1 h | > 1 h | > 1 h | > 1 h | changes in serum TTR levels [13]: No changes |
| Cc1n[nH]c(C)c1N1CCN(c2cc(-c3nn[nH]n3)ccc2F)CC1 [compound 54, 1-(3,5-dimethyl-1H-pyrazol-4-yl)-4-(2-fluoro-5-(2H-tetrazol-5-yl)phenyl)piperazine] |  |  |  |  | 1.26 h | < 1 h | < 1 h | < 1 h | microsomal CLint ([3]; microsomes): 18.4 µL/min/mg |
| O=C(O)c1ccc2nc(-c3cc(Cl)cc(Cl)c3)oc2c1 [tafamidis] |  |  |  |  |  |  |  |  | patients who do not respond [14]: Approximately 30%; ΔH [15]: -5.00 kcal/mol; reduction of the rate of cardiovascular-related hospitalizations [16]: 32%; reduction of the risk of death [16]: 30% |
